In US20130203718A1 (priority 2010, published 2013):
Read-outs that look alike come from different tables or passages of the source.

Molecular target: T1, hGR (Homo sapiens, UniProt P04150)
T1 construct: expressed in transfected cells; host or cells: HEK 293T
T1 sequence (P04150 1-777): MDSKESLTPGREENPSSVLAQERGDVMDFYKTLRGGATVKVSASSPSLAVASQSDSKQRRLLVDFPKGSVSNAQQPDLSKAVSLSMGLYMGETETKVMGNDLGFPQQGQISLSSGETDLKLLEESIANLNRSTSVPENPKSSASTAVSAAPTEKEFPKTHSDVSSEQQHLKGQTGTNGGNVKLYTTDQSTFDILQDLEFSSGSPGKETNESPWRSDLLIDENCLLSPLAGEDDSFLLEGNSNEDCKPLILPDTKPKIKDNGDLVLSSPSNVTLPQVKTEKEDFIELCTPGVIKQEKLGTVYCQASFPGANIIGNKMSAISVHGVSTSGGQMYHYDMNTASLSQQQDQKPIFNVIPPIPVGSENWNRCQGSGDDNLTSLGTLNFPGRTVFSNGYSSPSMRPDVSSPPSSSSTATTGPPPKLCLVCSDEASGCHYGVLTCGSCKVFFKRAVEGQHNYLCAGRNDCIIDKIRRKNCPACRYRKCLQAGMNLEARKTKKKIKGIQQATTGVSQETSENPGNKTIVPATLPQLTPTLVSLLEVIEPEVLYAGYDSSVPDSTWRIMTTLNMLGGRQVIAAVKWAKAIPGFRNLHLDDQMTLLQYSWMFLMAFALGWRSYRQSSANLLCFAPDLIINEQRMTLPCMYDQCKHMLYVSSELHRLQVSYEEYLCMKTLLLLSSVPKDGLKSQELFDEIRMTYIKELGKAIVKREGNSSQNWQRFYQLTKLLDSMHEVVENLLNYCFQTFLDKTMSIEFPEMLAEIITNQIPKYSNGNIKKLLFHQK
Test: APRn selectivity: transactivation in HEK293T cells transiently expressing hGR
Type: cell-based
Conditions: for GR Antagonist efficacy (%): dexamethasone 10^−9 M; for Emax: HEK-293T, read-out: GR Agonist efficacy (%)
Description: Measurement of the APRn Selectivity in HEK 293T.
The HEK-293T cells were cultured and transfected according to the method described above for the PR transactivation assays. The expression vectors pcDNA-hAR, kindly provided by G. A. Coetzee, pchGR (Hellal-Levy, C et al. FEBS Lett 1999, 464, 9), and pchMR (Fagart, J. et al. EMBO J. 1998, 17, 3317) were used for studying the ability of APRn to activate or inactivate the AR, GR and MR, respectively. For each transfection assays, 2 μg of the expression vector was used together with 7 μg of the GRE2-Luc reporter vector. Dihydrotestosterone (DHT), dexamethasone (Dex) and Aldosterone (Aldo) were selected as AR, GR and MR ligands, respectively. They were used at the concentration of 10^−9 M. The APRn agonist and antagonist efficacy for AR, GR and MR were measured as described above for PR. The results are the mean±SEM of three independent experiments.
Transfection assays were performed in HEK 293T cells by using expression vectors for the hAR, hGR and hMR and the GRE2-Luc reporter used for the PR transactivation assays.

[1] = HEK293T transiently expressing hGR, mean±SEM

CC(=O)[C@H]1CC[C@H]2[C@@H]3CC=C4C[C@@H](F)CC[C@]4(C)[C@H]3CC[C@]12C [APR-16, 3β-Fluoropregn-5-en-20-one]
GR Antagonist efficacy (%) [1]: 0.1 ± 2.2%
Emax [1]: 0.25 ± 0.02%

C[C@@H]1CCC2C3CC=C4C[C@@H](F)CC[C@]4(C)C3CC[C@]2(C)[C@H]1F (stereo partly drawn) [APR-19, 3β,17α-Difluoro-17α-methyl-D-Homo-pregn-5-ene]
GR Antagonist efficacy (%) [1]: −3.5 ± 1.4%
Emax: 0.26 ± 0.05%

CC#C[C@]1(O)CCC2C3CC[C@H]4CCCC[C@]4(C)C3CC[C@@]21C (stereo partly drawn) [APR-42, 17α-(1-Propynyl)-5α-androstan-17β-ol]
GR Antagonist efficacy (%) [1]: 4.4 ± 3.3%
Emax [1]: 0.22 ± 0.07%

CC#C[C@]1(O)CCC2C3CC[C@H]4C[C@@H](F)CC[C@]4(C)C3CC[C@@]21C (stereo partly drawn) [APR-43, 3β-Fluoro-17α-(1-propynyl)-5α-androstan-17β-ol]
GR Antagonist efficacy (%) [1]: −9.0 ± 1.7%
Emax: 0.17 ± 0.05%

C[C@]12CCC3C(CC=C4C[C@@H](F)CC[C@@H]43)C1CCC2=O (stereo partly drawn) [APR-47, 3β-Fluoro-19-nor-androst-5-en-17-one]
GR Antagonist efficacy (%) [1]: 1.5 ± 4.3%
Emax: 0.16 ± 0.02%

CC#C[C@]1(O)CCC2C3CC=C4C[C@@H](F)CC[C@@H]4C3CC[C@@]21C (stereo partly drawn) [APR-51, 3β-Fluoro-17α-(1-propynyl)-19-nor-androst-5-en-17β-ol]
GR Antagonist efficacy (%) [1]: 19.3 ± 7.3%
Emax: 0.29 ± 0.08%

CC#C[C@]1(O)CCC2C3CC[C@H]4CCCC[C@@H]4C3CC[C@@]21C (stereo partly drawn) [APR-54, 17α-(1-Propynyl)-19-nor-5-androstan-17β-ol]
GR Antagonist efficacy (%) [1]: −0.1 ± 3.3%
Emax [1]: 0.15 ± 0.02%
